Measurements taken from article PMC11378339, “Design, synthesis, and in vitro and in silico study of 1-benzyl-indole hybrid thiosemicarbazones as competitive tyrosinase inhibitors” (RSC Advances, 2024).

How the values were obtained:
[1] = system: mushroom tyrosinase; assay: Tyrosinase inhibition assay (96-well, L-DOPA substrate, dopachrome at 480 nm); type: biochemical; conditions: for IC50: mean ± SEM, triplicate, substrate L-DOPA
Protocol: Using a spectrophotometer microplate reader, the 96-well plate tyrosinase inhibition experiment was performed by Masamoto et al.'s protocol.[65,66] […] Then, add 60 μL of phosphate buffer and 10 μL of mushroom tyrosinase (30 U mL^−1 in phosphate buffer) to the reaction mixture incubated for 10 min at 25 °C. Following incubation, 20 μL of substrate L-DOPA (0.5 mM) in phosphate buffer was added. The end product dopachrome formation was measured at 480 nm for continues 10 min with one min interval time using 96-well ELISA plate reader (Bio-Rad xMARK microplate spectrophotometer). All of the experiments were carried out in triplicate to account for potential mistakes, and the mean findings were reported in SEM. All of the in vitro experiment results, including % inhibition and IC50 values, were examined using EZ-Fit, an enzyme kinetics tool that fits curves (Perrella Scientific Inc., Amherst, USA).
The % inhibition was computed using the formula provided below.1 [drawing 39]
EZ-FIT (Perrella Scientific, Inc., USA) was used to calculate each tested compound's IC50 value. All the experiments were performed in triplicate to reduce predicted errors, and differences in the outcomes are expressed as Standard Error of Mean values (SEM).2 [drawing 40]

[2] = biological target: mushroom tyrosinase; assay: Kinetic analysis of tyrosinase inhibition (Lineweaver-Burk, Dixon plot); type: biochemical; conditions: substrate L-Dopa 0.1-0.8 mM
Protocol: Four distinct doses of the substrate L-Dopa 0.1, 0.2, 0.4, and 0.8 mM were used in the kinetic analysis. The in vitro mechanistic study was carried out by following a similar inhibitory procedure with a similar experimental temperature and time period. […]

Row | Percent inhibition (0.5 mM) [1] [%] | IC50 [1] [µM] | melting point [°C] | Ki [2] [µM] | type of inhibition [2] | Structure (SMILES)
1 | 77.86 | 34.6 ± 0.81 | 199 to 201 | – | – | S=C(N/N=C/c1cn(Cc2ccccc2)c2ccccc12)Nc1cccc2ccccc12 [Compound 5r, (E)-2-[(1-benzyl-1H-indol-3-yl)methylene]-N-(naphthalen-1-yl)hydrazinecarbothioamide]
2 | 91.53 | 15.3 ± 0.3 | 223 to 225 | – | – | O=[N+]([O-])c1ccc(NC(=S)N/N=C/c2cn(Cc3ccccc3)c3ccccc23)cc1 [Compound 5q, (E)-2-[(1-benzyl-1H-indol-3-yl)methylene]-N-(4-nitrophenyl)hydrazinecarbothioamide]
3 | 86.54 | 26.1 ± 0.47 | 221 to 223 | – | – | Cc1ccc(NC(=S)N/N=C/c2cn(Cc3ccccc3)c3ccccc23)cc1 [Compound 5n, (E)-2-[(1-benzyl-1H-indol-3-yl)methylene]-N-(p-tolyl)hydrazinecarbothioamide]
4 | 90.84 | 12.4 ± 0.26 | 223 to 225 | 10.2 ± 0.006 | competitive | Cc1ccc(CNC(=S)N/N=C/c2cn(Cc3ccccc3)c3ccccc23)cc1 [Compound 5k, (E)-2-[(1-benzyl-1H-indol-3-yl)methylene]-N-(4-methylbenzyl)hydrazinecarbothioamide]
5 | 91.34 | 17.1 ± 0.28 | – | – | – | O=[N+]([O-])c1cccc(NC(=S)N/N=C/c2cn(Cc3ccccc3)c3ccccc23)c1 [Compound 5o, (E)-2-[(1-benzyl-1H-indol-3-yl)methylene]-N-(3-nitrophenyl)hydrazinecarbothioamide]
6 | 76.35 | 47.2 ± 1.27 | 221 to 223 | – | – | Cc1cc(C)cc(NC(=S)N/N=C/c2cn(Cc3ccccc3)c3ccccc23)c1 [Compound 5m, (E)-2-[(1-benzyl-1H-indol-3-yl)methylene]-N-(3,5-dimethylphenyl)hydrazine carbo thioamide]
7 | 46.20 | – | 220 to 221 | – | – | CNC(=S)N/N=C/c1cn(Cc2ccccc2)c2ccccc12 [Compound 5p, (E)-2-[(1-benzyl-1H-indol-3-yl)methylene]-N-methylhydrazinecarbothioamide]
8 | 84.39 | 31.6 ± 1.26 | – | – | – | COc1cccc(NC(=S)N/N=C/c2cn(Cc3ccccc3)c3ccccc23)c1 [Compound 5l, (E)-2-[(1-benzyl-1H-indol-3-yl)methylene]-N-(3-methoxyphenyl)hydrazinecarbothioamide]

Further lines, the compound ahead of its results:

Row | Structure (SMILES) | Percent inhibition (0.5 mM) [1] [%] | IC50 [1] [µM] | melting point [°C] | Ki [2] [µM] | type of inhibition [2]
9 | S=C(N/N=C/c1cn(Cc2ccccc2)c2ccccc12)Nc1cccc(Cl)c1Cl [Compound 5f, (E)-2-[(1-benzyl-1H-indol-3-yl)methylene]-N-(2,3-dichlorophenyl)hydrazinecarbo thioamide] | 90.83 | 15.3 ± 0.37 | 213 to 215 | – | –
10 | S=C(NCc1ccc(Cl)cc1)N/N=C/c1cn(Cc2ccccc2)c2ccccc12 [Compound 5e, (E)-2-[(1-benzyl-1H-indol-3-yl)methylene]-N-(4-chlorobenzyl)hydrazinecarbothioamide] | 84.73 | 33.6 ± 1.1 | 225 to 227 | – | –
11 | S=C(N/N=C/c1cn(Cc2ccccc2)c2ccccc12)Nc1ccc(Br)cc1 [Compound 5j, (E)-2-[(1-benzyl-1H-indol-3-yl)methylene]-N-(4-bromophenyl)hydrazinecarbothioamide] | 84.19 | 26.8 ± 0.29 | – | – | –
12 | COc1ccc(NC(=S)N/N=C/c2cn(Cc3ccccc3)c3ccccc23)cc1 [Compound 5a, (E)-2-[(1-benzyl-1H-indol-3-yl)methylene]-N-(4-methoxyphenyl)hydrazinecarbothioamide] | 87.15 | 24.2 ± 0.38 | – | – | –
13 | S=C(NCCc1ccccc1)N/N=C/c1cn(Cc2ccccc2)c2ccccc12 [Compound 5b, (E)-2-[(1-benzyl-1H-indol-3-yl)methylene]-N-phenethylhydrazinecarbothioamide] | 78.35 | 45.4 ± 0.75 | 198 to 201 | – | –
14 | Cc1cccc(C)c1NC(=S)N/N=C/c1cn(Cc2ccccc2)c2ccccc12 [Compound 5c, (E)-2-[(1-benzyl-1H-indol-3-yl)methylene]-N-(2,6-dimethylphenyl)hydrazinecarbo thioamide] | 85.66 | 27.4 ± 0.6 | – | – | –
15 | S=C(N/N=C/c1cn(Cc2ccccc2)c2ccccc12)Nc1ccccc1 [Compound 5g, (E)-2-[(1-benzyl-1H-indol-3-yl)methylene]-N-phenylhydrazinecarbothioamide] | 81.47 | 38.3 ± 1.34 | – | – | –
16 | Fc1ccc(NC(=S)N/N=C/c2cn(Cc3ccccc3)c3ccccc23)cc1 [Compound 5d, (E)-2-[(1-benzyl-1H-indol-3-yl)methylene]-N-(4-fluorophenyl)hydrazinecarbothioamide] | 90.47 | 16.8 ± 0.38 | – | – | –
17 | Cc1ccc(NC(=S)N/N=C/c2cn(Cc3ccccc3)c3ccccc23)c(C)c1 [Compound 5h, (E)-2-[(1-benzyl-1H-indol-3-yl)methylene]-N-(2,4-dimethylphenyl)hydrazinecarbo thioamide] | 83.76 | 29.7 ± 0.72 | 180 to 182 | – | –
18 | S=C(NCc1ccccc1)N/N=C/c1cn(Cc2ccccc2)c2ccccc12 [Compound 5i, (E)-N-benzyl-2-[(1-benzyl-1H-indol-3-yl)methylene]hydrazinecarbothioamide] | 82.71 | 36.7 ± 1.48 | 193 to 195 | – | –
